Experiments:
[1] = test system: SMMC-7721; experiment: Cytotoxicity against human SMMC7721 cells assessed as growth inhibition after 48 hrs by MTT assay; assay type: functional, cell-based; settings: SMMC-7721, 48 h
[2] = test system: MCF7; experiment: Cytotoxicity against human MCF7 cells assessed as growth inhibition after 48 hrs by MTT assay; assay type: functional, cell-based; settings: MCF7, 48 h
[3] = test system: SW480; experiment: Cytotoxicity against human SW480 cells assessed as growth inhibition after 48 hrs by MTT assay; assay type: functional, cell-based; settings: SW480, 48 h
[4] = test system: HL-60; experiment: Cytotoxicity against human HL60 cells assessed as growth inhibition after 48 hrs by MTT assay; assay type: functional, cell-based; settings: HL-60, 48 h
[5] = test system: A549; experiment: Cytotoxicity against human A549 cells assessed as growth inhibition after 48 hrs by MTT assay; assay type: functional, cell-based; settings: A549, 48 h
[6] = test system: MCF7; experiment: Ratio of compound IC50 to DDP IC50 for growth inhibition of human MCF7 cells; assay type: functional
[7] = test system: SMMC-7721; experiment: Ratio of compound IC50 to DDP IC50 for growth inhibition of human SMMC7721 cells; assay type: functional

Structure (SMILES) | IC50 [1] [µM] | IC50 [2] [µM] | IC50 [3] [µM] | IC50 [4] [µM] | IC50 [5] [µM] | Ratio IC50 [6] | Ratio IC50 [7]
O=[N+]([O-])c1ccc(C[n+]2ccn(C(c3ccccc3)c3cc4ccccc4o3)c2)cc1 (configuration not stated) | > 40 | > 40 | > 40 | > 40 | > 40 |  | 
Cc1n(C(c2ccccc2)c2cc3ccccc3o2)cc[n+]1CC(=O)c1ccc(Br)cc1 (configuration not stated) | 11.1 | 15.2 | 14.5 | 3.3 | 26.1 |  | 
Cc1n(C(c2ccccc2)c2cc3ccccc3o2)cc[n+]1CC(=O)c1ccc(O)cc1 (configuration not stated) | > 40 | > 40 | > 40 | > 40 | > 40 |  | 
COc1ccc(C(=O)C[n+]2ccn(C(c3ccccc3)c3cc4ccccc4o3)c2C)cc1 (configuration not stated) | 5.29 | 9.84 | 14.4 | 1.65 | 8 |  | 
Cc1n(C(c2ccccc2)c2cc3ccccc3o2)cc[n+]1CC(=O)c1ccc2ccccc2c1 (configuration not stated) | 4.29 | 2.24 | 4.48 | 1.85 | 8.57 |  | 
C=CC[n+]1ccn(C(c2ccccc2)c2cc3ccccc3o2)c1CC (configuration not stated) | > 40 | > 40 | > 40 | > 40 | > 40 |  | 
CCCC[n+]1ccn(C(c2ccccc2)c2cc3ccccc3o2)c1CC (configuration not stated) | > 40 | > 40 | > 40 | > 40 | > 40 |  | 
CCc1n(C(c2ccccc2)c2cc3ccccc3o2)cc[n+]1Cc1ccccc1 (configuration not stated) | 7.14 | 5.24 | 3.75 | 2.06 | 6.52 |  | 
CCc1n(C(c2ccccc2)c2cc3ccccc3o2)cc[n+]1CC(=O)c1ccccc1 (configuration not stated) | 10.6 | 14 | 19.1 | 2.64 | 13.7 |  | 
CCc1n(C(c2ccccc2)c2cc3ccccc3o2)cc[n+]1CC(=O)c1ccc(F)cc1 (configuration not stated) | 10.9 | 13.8 | > 40 | 2.38 | 7.36 |  | 
CCc1n(C(c2ccccc2)c2cc3ccccc3o2)cc[n+]1CC(=O)c1ccc(Br)cc1 (configuration not stated) | 6.14 | 9.5 | 15.5 | 2.94 | 14.1 |  | 
CCc1n(C(c2ccccc2)c2cc3ccccc3o2)cc[n+]1CC(=O)c1ccc(O)cc1 (configuration not stated) | > 40 | > 40 | > 40 | > 40 | > 40 |  | 
CCc1n(C(c2ccccc2)c2cc3ccccc3o2)cc[n+]1CC(=O)c1ccc(OC)cc1 (configuration not stated) | 7.07 | 9.5 | 17.1 | 2.17 | 5.43 |  | 
CCc1n(C(c2ccccc2)c2cc3ccccc3o2)cc[n+]1CC(=O)c1ccc2ccccc2c1 (configuration not stated) | 4.48 | 4.2 | 16.4 | 1.86 | 3.23 |  | 
C=CC[n+]1cn(C(c2ccccc2)c2cc3ccccc3o2)c2ccccc21 (configuration not stated) | > 40 | > 40 | > 40 | > 40 | > 40 |  | 
CCCC[n+]1cn(C(c2ccccc2)c2cc3ccccc3o2)c2ccccc21 (configuration not stated) | 7.03 | 15.4 | 29.3 | 2.87 | 12.3 |  | 
c1ccc(C[n+]2cn(C(c3ccccc3)c3cc4ccccc4o3)c3ccccc32)cc1 (configuration not stated) | 3.63 | 9.16 | 6.31 | 1.05 | 6.92 |  | 
O=[N+]([O-])c1ccc(C[n+]2cn(C(c3ccccc3)c3cc4ccccc4o3)c3ccccc32)cc1 (configuration not stated) | 11.5 | 16.4 | 14 | 11 | > 40 |  | 
O=C(C[n+]1cn(C(c2ccccc2)c2cc3ccccc3o2)c2ccccc21)c1ccccc1 (configuration not stated) | 5.34 | 9.59 | 15.5 | 2.69 | 14.4 |  | 
O=C(C[n+]1cn(C(c2ccccc2)c2cc3ccccc3o2)c2ccccc21)c1ccc(F)cc1 (configuration not stated) | 3.98 | 12 | 13.6 | 2.1 | 9.15 |  | 
O=C(C[n+]1cn(C(c2ccccc2)c2cc3ccccc3o2)c2ccccc21)c1ccc(Br)cc1 (configuration not stated) | 3.99 | 3.35 | 3.75 | 2.68 | 4.76 |  | 
O=C(C[n+]1cn(C(c2ccccc2)c2cc3ccccc3o2)c2ccccc21)c1ccc(O)cc1 (configuration not stated) | > 40 | > 40 | > 40 | > 40 | > 40 |  | 

Structure (SMILES) | IC50 [1] [µM] | IC50 [2] [µM] | IC50 [3] [µM] | IC50 [4] [µM] | IC50 [5] [µM] | Ratio IC50 [6] | Ratio IC50 [7]
COc1ccc(C(=O)C[n+]2cn(C(c3ccccc3)c3cc4ccccc4o3)c3ccccc32)cc1.[Br-] (configuration not stated) | 3.09 | 2.29 | 3.55 | 1.02 | 3.57 | 4.6 | 
O=C(C[n+]1cn(C(c2ccccc2)c2cc3ccccc3o2)c2ccccc21)c1ccc2ccccc2c1.[Br-] (configuration not stated) | 2.35 | 3.13 | 3.18 | 1.12 | 3.43 |  | 6.3
CS(=O)(=O)OC(c1ccccc1)c1cc2ccccc2o1 (configuration not stated) | > 40 | > 40 | > 40 | > 40 | > 40 |  | 
c1ccc(C(c2cc3ccccc3o2)n2ccnc2)cc1 (configuration not stated) | > 40 | > 40 | > 40 | > 40 | > 40 |  | 
Cc1nccn1C(c1ccccc1)c1cc2ccccc2o1 (configuration not stated) | > 40 | > 40 | > 40 | > 40 | > 40 |  | 
CCc1nccn1C(c1ccccc1)c1cc2ccccc2o1 (configuration not stated) | > 40 | > 40 | > 40 | > 40 | > 40 |  | 
c1ccc(C(c2cc3ccccc3o2)n2cnc3ccccc32)cc1 (configuration not stated) | > 40 | > 40 | > 40 | > 40 | > 40 |  | 
C=CC[n+]1ccn(C(c2ccccc2)c2cc3ccccc3o2)c1 (configuration not stated) | > 40 | > 40 | > 40 | > 40 | > 40 |  | 
CCCC[n+]1ccn(C(c2ccccc2)c2cc3ccccc3o2)c1 (configuration not stated) | > 40 | > 40 | > 40 | > 40 | > 40 |  | 
c1ccc(C[n+]2ccn(C(c3ccccc3)c3cc4ccccc4o3)c2)cc1 (configuration not stated) | > 40 | > 40 | > 40 | > 40 | > 40 |  | 
O=C(C[n+]1ccn(C(c2ccccc2)c2cc3ccccc3o2)c1)c1ccccc1 (configuration not stated) | > 40 | > 40 | > 40 | > 40 | > 40 |  | 
O=C(C[n+]1ccn(C(c2ccccc2)c2cc3ccccc3o2)c1)c1ccc(F)cc1 (configuration not stated) | > 40 | > 40 | > 40 | > 40 | > 40 |  | 
O=C(C[n+]1ccn(C(c2ccccc2)c2cc3ccccc3o2)c1)c1ccc(Br)cc1 (configuration not stated) | 5.5 | 12 | 15.5 | 2.64 | 15.5 |  | 
O=C(C[n+]1ccn(C(c2ccccc2)c2cc3ccccc3o2)c1)c1ccc(O)cc1 (configuration not stated) | > 40 | > 40 | > 40 | > 40 | > 40 |  | 
COc1ccc(C(=O)C[n+]2ccn(C(c3ccccc3)c3cc4ccccc4o3)c2)cc1 (configuration not stated) | 8.47 | 16.1 | 15.4 | 2.99 | 14.6 |  | 
O=C(C[n+]1ccn(C(c2ccccc2)c2cc3ccccc3o2)c1)c1ccc2ccccc2c1 (configuration not stated) | 3.47 | 3.12 | 14.2 | 1.93 | 7.77 |  | 
C=CC[n+]1ccn(C(c2ccccc2)c2cc3ccccc3o2)c1C (configuration not stated) | > 40 | > 40 | > 40 | > 40 | > 40 |  | 
CCCC[n+]1ccn(C(c2ccccc2)c2cc3ccccc3o2)c1C (configuration not stated) | > 40 | > 40 | > 40 | > 40 | > 40 |  | 
Cc1n(C(c2ccccc2)c2cc3ccccc3o2)cc[n+]1Cc1ccccc1 (configuration not stated) | > 40 | > 40 | > 40 | > 40 | > 40 |  | 
Cc1n(C(c2ccccc2)c2cc3ccccc3o2)cc[n+]1CC(=O)c1ccccc1 (configuration not stated) | 14.8 | 10.2 | > 40 | 3.17 | 18.8 |  | 
Cc1n(C(c2ccccc2)c2cc3ccccc3o2)cc[n+]1CC(=O)c1ccc(F)cc1 (configuration not stated) | 14.5 | 10.7 | 12.7 | 4.7 | 21.7 |  | 

Reference: ChEMBL document CHEMBL2331534, “Design, synthesis and biological evaluation of novel hybrid compounds of imidazole scaffold-based 2-benzylbenzofuran as potent anticancer agents” (Eur J Med Chem, 2013)
